The text below walks through data of ChEMBL document CHEMBL1201862, “PubChem BioAssay data set” (2004).

As usually defined, the EC50 is the concentration that produces a half-maximal response. A word on the IC50: it is the point on the concentration scale where inhibition reaches its midpoint. What is called AC50 is the concentration giving half of the maximal activity seen. One may read the CC50 as the concentration giving 50% cytotoxicity.

Structures are written as SMILES. Calls of active or inactive are those of the source.

For one assay, the target named is Kallikrein-7 (Homo sapiens, UniProt P49862). Nature of the assay: Fluorescence Intensity-based biochemical primary high throughput dose response assay to identify activators of kallikrein-7 (K7) zymogen.
The target in assay [1] is 1-phosphatidylinositol 4,5-bisphosphate phosphodiesterase gamma-1 (Homo sapiens, UniProt P19174). Nature of the assay: Counterscreen for inhibitors of phospholipase C isozymes (PLC-B3): Fluorescence-based biochemical high throughput dose response assay to identify inhibitors of phospholipase C isozymes (PLC-gamma1).
Assay [2] deals with 1-phosphatidylinositol 4,5-bisphosphate phosphodiesterase beta-3 (Homo sapiens, UniProt Q01970). Put plainly: Fluorescence-based biochemical high throughput dose response assay to identify inhibitors of phospholipase C isozymes (PLC-B3).
The next assay in a line: cells. As to conditions: HEK-CNG. Format: functional, cell-based.
The target in assay [3] is T1, Rac GTPase-activating protein 1 (Homo sapiens, UniProt Q9H0H5).
T1 sequence (Q9H0H5 whole entry): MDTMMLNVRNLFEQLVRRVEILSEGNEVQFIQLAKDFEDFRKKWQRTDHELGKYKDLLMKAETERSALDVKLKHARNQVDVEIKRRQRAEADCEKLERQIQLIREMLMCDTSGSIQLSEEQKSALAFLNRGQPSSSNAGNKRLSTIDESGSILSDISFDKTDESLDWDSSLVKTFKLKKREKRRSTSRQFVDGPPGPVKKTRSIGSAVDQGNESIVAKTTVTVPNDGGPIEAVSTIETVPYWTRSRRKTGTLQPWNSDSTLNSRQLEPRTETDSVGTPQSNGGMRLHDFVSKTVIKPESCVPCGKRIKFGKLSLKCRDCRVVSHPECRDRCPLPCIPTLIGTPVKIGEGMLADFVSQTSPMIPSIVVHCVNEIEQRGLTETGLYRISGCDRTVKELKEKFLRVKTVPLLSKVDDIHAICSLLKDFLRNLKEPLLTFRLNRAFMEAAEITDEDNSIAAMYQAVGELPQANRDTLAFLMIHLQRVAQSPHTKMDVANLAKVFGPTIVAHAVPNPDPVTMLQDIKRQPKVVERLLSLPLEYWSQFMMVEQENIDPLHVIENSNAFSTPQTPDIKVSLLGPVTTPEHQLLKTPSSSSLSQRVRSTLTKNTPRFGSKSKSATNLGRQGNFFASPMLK
Nature of the assay: blockers of MgcRacGAP-driven Rac1 GTP hydrolysis – biochemical, ADP Hunter fluorescence, primary and confirmatory, confirmation (AID 624330). Format: functional.

In assay [4] the target is T2, Histone-lysine N-methyltransferase NSD2 (Homo sapiens, UniProt O96028).
T2 sequence (O96028 whole entry): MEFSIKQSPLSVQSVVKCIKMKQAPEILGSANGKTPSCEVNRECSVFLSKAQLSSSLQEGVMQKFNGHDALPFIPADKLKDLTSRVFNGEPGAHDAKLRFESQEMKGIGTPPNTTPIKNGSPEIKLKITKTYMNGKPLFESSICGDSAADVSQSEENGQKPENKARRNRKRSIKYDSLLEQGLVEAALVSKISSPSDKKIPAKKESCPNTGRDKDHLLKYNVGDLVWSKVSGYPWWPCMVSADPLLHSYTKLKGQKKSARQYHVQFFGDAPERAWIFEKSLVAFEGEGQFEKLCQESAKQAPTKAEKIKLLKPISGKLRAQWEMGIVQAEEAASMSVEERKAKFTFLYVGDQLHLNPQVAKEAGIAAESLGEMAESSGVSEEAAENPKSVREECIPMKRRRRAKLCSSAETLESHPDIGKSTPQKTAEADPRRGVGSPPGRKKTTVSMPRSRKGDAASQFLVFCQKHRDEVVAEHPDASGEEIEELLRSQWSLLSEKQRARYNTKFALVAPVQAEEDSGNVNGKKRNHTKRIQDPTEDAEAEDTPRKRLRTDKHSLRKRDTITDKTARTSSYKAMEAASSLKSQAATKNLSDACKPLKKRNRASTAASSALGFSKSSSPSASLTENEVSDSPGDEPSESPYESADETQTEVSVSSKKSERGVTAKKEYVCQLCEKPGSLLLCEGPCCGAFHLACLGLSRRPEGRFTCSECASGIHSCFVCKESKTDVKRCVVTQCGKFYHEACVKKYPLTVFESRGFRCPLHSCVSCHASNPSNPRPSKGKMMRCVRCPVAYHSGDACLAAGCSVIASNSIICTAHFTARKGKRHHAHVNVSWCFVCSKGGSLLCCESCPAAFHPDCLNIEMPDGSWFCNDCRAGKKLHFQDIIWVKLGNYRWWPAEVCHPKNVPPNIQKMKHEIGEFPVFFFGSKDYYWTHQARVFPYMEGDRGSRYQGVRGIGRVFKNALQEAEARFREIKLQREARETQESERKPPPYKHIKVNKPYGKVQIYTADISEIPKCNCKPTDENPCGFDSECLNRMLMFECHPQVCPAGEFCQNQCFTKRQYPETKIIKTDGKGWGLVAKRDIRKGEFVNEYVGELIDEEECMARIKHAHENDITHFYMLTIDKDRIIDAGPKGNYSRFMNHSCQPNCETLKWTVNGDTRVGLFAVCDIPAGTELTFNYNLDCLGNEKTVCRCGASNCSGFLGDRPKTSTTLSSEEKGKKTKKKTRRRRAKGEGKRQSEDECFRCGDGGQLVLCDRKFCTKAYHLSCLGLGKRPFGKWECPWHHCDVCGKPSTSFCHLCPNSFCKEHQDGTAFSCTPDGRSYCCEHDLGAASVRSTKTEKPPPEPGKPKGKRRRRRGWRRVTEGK
Format: biochemical.

The target in a further assay is T3, Galanin receptor type 3 (Homo sapiens, UniProt O60755).
T3 sequence (O60755 whole entry): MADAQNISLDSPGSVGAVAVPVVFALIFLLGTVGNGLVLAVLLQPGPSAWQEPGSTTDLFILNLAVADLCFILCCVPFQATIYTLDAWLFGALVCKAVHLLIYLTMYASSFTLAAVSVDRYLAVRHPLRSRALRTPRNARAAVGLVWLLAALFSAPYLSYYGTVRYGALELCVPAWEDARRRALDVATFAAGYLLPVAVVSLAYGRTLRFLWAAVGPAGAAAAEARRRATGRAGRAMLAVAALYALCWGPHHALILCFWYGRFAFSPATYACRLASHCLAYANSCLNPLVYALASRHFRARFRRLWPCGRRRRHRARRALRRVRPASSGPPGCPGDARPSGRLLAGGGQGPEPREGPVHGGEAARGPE
Put plainly: Fluorescence-based cell-based primary high throughput dose response assay to identify antagonists of the Galanin Receptor 3 (GalR3). It is filed as functional.

Assay [5] deals with T4, DNA repair protein RAD52 homolog (Homo sapiens, UniProt P43351).
T4 sequence (P43351 whole entry): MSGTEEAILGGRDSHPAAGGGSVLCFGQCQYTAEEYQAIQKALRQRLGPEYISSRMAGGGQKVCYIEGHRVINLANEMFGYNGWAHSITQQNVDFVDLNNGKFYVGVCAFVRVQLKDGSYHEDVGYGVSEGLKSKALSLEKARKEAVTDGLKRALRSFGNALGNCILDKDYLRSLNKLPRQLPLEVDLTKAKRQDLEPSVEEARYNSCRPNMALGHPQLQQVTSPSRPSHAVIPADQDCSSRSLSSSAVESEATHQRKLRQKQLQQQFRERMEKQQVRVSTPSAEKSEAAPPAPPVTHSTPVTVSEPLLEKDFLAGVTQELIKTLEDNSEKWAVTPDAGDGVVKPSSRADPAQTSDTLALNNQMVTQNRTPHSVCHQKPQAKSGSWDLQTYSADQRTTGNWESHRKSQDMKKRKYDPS
It is filed as functional, biochemical.

Assay [6] in a line: HGIII-sPLA2 enzyme inhibition potency – biochemical, QFRET, IC50, dose response (AID 743457).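 Further: green fluorescence rise as the enzyme cleaves BODIPY PC-A2 in liposomes.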
For assay [7], the target named is Matrix metalloproteinase-14 (Homo sapiens, UniProt P50281). Put plainly: Dose Response confirmation of uHTS hits for a small molecule inhibitors of MT1-MMP activation in a fluorescence assay set 1. It is filed as functional.
The target in the next assay is Nonstructural protein 1 (Influenza A virus, UniProt Q194T2). Format: functional, Influenza A virus (A/California/07/2009(H1N1)).
Assay [8] in a line: viability loss in HeLa cells – cytotoxicity control for MgcRacGAP inhibitor project, dose response (AID 624300). It is filed as functional.
A short description of assay [9]: reduction of Shn3 3'UTR-driven luciferase in osteoblasts – cell-based, Clone20 osteoblasts, firefly luciferase, cherry-picked, dose response (AID 624132).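 Further: firefly luciferase luminescence from reporter carrying the Shn3 3'UTR in osteoblasts.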 It is filed as functional.
The nature of assay [10]: non-specific 3'UTR reporter inhibition in Clone20-Shn3RL – cell-based, Renilla luciferase, cherry-picked, counter-screen for Shn3 inhibitor project, dose response (AID 624133). Format: functional.
The target of assay [11] is COUP transcription factor 2 (Homo sapiens, UniProt P24468). Put plainly: Luminescence-based cell-based high throughput dose response assay to identify inhibitors of COUP-TFII (NR2F2). Format: functional.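 Further: HEK293 cells transiently cotransfected with COUP-TFII expression vector and reporter; luciferase reporter luminescence driven by COUP-TFII from the pX2-168 reporter plasmid.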
The nature of assay [12]: loss of viability in HepG2 cells – cell-based, CellTiter-Glo, cherry-picked, cytotoxicity control for Shn3 inhibitor project, dose response (AID 624134). It is filed as functional.
In a further assay the target is Paired box protein Pax-8 (Homo sapiens, UniProt Q06710). Put plainly: PAX8 transcriptional activity inhibition in RMG-I – RMG-I cells, luciferase, cherry-pick, dose response (AID 687027).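 Further: luciferase reporter driven by Pax8 target thyroperoxidase promoter measured by SteadyGlo luminescence.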 Format: functional, cell-based.
The nature of assay [13]: OVCAR8 cell viability loss – plate reader, dry powder samples, PAX8 project, dose response (AID 743197). Format: functional, cell-based. The conditions noted are these: OVCAR-8.
Assay [14] in a line: OVCAR-3 cell viability loss – plate reader, dry powder samples, PAX8 inhibitor project, dose response (AID 743044). Format: functional, cell-based.
Assay [15] can be described thus: toxicity toward immortalized ovarian surface epithelium – cell-based, plate reader, dry powder samples, cytotoxicity control for PAX8 inhibitor project, dose response (AID 743045). It is filed as functional.
Assay [16] in a line: CellTiter-Glo luminescence survival assay, SW480 colon tumor line, concentration-response curve, half-maximal inhibitory concentration (AID 1117338). It is filed as functional.
Assay [17] is described as follows: cytotoxicity toward HCT116 cells – cell-based, CellTiter-Glo luminescence, IC50, dose response (AID 1117332). As to conditions: HCT-116. Format: functional. On the technique in general: Cellular ATP, detected with luciferase, serves as a proxy for viable cell number.
A short description of assay [18]: cytotoxicity toward Colo320 cells – cell-based, CellTiter-Glo luminescence, IC50, dose response (AID 1117334). It is filed as functional. As to conditions: COLO 320.
Assay [19] can be described thus: SNU-C1 cell viability reduction, dose response, CellTiter-Glo luminescence (AID 1117323). It is filed as functional, cell-based.
Assay [20] can be described thus: Reduced DLD-1 viability, concentration-response, CellTiter-Glo luminescence (AID 1117352). Format: functional.
The nature of assay [21]: RKO cell viability reduction, dose response, CellTiter-Glo luminescence (AID 1117322). Format: functional.
Assay [22] in a line: cytotoxicity toward HT-29 cells – cell-based, CellTiter-Glo luminescence, IC50, dose response (AID 1117330). It is filed as functional.

Chain of 1-phosphatidylinositol 4,5-bisphosphate phosphodiesterase beta-3 (Q01970 whole entry): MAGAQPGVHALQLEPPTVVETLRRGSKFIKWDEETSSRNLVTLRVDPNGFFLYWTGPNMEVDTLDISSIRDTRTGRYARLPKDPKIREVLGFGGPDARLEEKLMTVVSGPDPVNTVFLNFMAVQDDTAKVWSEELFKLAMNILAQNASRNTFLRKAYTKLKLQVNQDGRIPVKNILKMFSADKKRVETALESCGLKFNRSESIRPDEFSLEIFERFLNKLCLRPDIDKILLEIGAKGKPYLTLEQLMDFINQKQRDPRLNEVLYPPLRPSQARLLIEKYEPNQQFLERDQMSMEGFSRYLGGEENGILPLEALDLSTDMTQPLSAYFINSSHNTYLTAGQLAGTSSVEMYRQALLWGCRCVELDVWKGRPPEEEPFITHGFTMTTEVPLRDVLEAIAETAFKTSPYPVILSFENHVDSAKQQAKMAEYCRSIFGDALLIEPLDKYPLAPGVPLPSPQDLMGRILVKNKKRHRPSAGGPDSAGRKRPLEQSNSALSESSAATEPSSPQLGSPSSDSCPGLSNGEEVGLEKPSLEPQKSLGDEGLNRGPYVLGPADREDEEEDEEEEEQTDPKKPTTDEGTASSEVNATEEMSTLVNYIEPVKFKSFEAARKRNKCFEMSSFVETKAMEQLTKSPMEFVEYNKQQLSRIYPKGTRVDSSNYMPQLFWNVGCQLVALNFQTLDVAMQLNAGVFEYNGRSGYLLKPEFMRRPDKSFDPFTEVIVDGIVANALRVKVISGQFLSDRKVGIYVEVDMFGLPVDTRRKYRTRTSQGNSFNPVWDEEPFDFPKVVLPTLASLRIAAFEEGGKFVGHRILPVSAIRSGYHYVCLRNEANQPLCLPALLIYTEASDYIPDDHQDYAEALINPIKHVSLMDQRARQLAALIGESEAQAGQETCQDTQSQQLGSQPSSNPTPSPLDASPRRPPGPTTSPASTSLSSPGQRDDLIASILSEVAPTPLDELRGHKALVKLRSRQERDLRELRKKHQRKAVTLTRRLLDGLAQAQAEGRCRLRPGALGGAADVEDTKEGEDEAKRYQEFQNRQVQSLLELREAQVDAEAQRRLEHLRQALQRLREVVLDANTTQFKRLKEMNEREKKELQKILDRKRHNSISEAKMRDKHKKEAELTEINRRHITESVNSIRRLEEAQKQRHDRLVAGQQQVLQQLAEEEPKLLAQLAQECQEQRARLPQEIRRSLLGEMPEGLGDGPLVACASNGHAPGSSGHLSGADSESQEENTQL
Chain of 1-phosphatidylinositol 4,5-bisphosphate phosphodiesterase gamma-1 (P19174 whole entry): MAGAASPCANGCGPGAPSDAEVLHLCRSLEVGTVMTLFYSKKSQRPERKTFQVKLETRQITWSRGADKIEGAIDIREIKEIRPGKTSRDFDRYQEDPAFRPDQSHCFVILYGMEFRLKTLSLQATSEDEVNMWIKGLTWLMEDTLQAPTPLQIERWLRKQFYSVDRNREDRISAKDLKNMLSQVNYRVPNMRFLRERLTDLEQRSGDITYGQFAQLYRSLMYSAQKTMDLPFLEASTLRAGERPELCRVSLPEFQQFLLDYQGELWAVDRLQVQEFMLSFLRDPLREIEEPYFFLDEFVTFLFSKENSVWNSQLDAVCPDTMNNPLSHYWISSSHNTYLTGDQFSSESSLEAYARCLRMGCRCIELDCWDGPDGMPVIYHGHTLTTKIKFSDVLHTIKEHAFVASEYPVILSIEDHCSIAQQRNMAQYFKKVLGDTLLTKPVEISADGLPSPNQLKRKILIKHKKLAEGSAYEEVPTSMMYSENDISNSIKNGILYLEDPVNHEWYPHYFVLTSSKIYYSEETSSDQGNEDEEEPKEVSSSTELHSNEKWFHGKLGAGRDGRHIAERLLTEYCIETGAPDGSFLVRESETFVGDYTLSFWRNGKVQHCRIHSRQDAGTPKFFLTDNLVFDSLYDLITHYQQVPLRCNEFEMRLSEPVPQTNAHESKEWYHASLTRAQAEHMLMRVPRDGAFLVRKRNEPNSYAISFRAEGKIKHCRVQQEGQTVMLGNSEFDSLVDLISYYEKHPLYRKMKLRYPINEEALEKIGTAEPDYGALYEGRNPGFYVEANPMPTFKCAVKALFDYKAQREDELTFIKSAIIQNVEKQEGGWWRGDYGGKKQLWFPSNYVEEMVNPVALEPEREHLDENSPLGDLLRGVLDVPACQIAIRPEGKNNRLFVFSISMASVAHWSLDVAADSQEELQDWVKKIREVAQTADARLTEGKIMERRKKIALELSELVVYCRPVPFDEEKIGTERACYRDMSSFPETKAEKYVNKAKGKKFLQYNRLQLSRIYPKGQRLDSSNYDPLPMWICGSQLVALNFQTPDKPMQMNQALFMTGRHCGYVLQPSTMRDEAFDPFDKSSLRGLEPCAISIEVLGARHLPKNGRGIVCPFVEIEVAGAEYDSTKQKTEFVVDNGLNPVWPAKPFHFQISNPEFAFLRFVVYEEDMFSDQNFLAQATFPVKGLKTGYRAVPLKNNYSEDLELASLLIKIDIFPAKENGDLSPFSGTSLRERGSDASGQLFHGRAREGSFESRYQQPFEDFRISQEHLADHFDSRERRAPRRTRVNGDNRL
Chain of COUP transcription factor 2 (P24468 whole entry): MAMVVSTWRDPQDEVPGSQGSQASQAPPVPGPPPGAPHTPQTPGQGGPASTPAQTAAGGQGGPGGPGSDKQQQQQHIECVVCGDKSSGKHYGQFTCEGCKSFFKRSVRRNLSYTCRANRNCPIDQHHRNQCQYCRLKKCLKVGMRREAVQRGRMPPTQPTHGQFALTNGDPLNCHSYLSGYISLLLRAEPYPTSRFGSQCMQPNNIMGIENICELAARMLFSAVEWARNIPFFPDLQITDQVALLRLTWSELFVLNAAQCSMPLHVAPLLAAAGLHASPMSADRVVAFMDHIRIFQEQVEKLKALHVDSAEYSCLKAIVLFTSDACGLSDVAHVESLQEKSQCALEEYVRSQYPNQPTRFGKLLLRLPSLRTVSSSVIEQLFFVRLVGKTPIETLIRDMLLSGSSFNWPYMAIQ
Chain of Paired box protein Pax-8 (Q06710 whole entry): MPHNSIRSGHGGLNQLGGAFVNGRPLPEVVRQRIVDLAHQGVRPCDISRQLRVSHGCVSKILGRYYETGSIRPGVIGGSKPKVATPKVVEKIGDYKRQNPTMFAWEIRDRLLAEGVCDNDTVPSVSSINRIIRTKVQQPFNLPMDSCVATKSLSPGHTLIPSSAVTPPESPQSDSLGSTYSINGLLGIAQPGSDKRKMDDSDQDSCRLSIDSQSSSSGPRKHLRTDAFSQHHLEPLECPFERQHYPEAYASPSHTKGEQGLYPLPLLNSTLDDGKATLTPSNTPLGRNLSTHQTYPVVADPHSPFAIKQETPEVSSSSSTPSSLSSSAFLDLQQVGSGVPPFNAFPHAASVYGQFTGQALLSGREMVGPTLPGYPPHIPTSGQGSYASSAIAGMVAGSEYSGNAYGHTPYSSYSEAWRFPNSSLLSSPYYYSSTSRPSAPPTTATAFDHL
Chain of Kallikrein-7 (P49862 whole entry): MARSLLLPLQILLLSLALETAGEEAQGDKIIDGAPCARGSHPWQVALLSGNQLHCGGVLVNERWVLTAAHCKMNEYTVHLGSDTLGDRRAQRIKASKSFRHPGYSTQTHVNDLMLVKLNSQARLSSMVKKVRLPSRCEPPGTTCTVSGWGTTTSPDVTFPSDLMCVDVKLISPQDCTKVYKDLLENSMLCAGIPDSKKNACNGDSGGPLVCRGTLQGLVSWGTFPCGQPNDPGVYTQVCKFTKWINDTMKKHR
Chain of Nonstructural protein 1 (Q194T2 whole entry): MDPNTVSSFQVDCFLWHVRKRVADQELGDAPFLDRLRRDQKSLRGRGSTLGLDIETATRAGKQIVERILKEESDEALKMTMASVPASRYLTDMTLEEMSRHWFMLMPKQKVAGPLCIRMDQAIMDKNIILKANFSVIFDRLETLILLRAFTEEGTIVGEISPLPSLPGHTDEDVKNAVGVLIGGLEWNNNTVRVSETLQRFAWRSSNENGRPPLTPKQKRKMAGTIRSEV

Take `Cc1ccc2nc(NC(=O)c3ccc4ncsc4c3)sc2c1`: the EC50 on Kallikrein-7 is 20.8 µM (inactive).
As for `CC1=C(C(=O)OCc2ccc([N+](=O)[O-])cc2)N2C(=O)C(NC(=O)Cc3ccccc3)C2SC1` (centres undefined), the IC50 in assay [1] is 30.8 µM (inactive); in assay [2], > 122 µM (inactive).
Consider `CN(C)c1ccc(C=c2c3ccccc3n3c2c2c([n+]3C)CCCC2)cc1`, for which, in the assay “cells”, the EC50 is > 29.9 µM (inactive). Further, the IC50 in assay [3] is 38.3 µM (active); at Galanin receptor type 3, 1.31 µM (active); in assay [6] it was 71.1 µM (inactive); in assay [7] it was > 80 µM (inactive); at Nonstructural protein 1 it was 11 µM (active). In addition, the AC50 is 7.63 µM (active) in assay [4] and 0.914 µM (active) in assay [5]. In assay [8], the CC50 was 16.9 µM (active).
Turning to `COc1ccc(CNC(=O)c2cccc3c(-c4cccnc4)coc23)cc1OC`, in the assay “cells”, the EC50 is > 29.9 µM (inactive). Moreover, the results for the IC50 (at Galanin receptor type 3; in [11]) were 0.126 µM (active) and 1.47 µM (active), respectively. In addition, the AC50 in assay [9] was 0.9 µM (active); in [10] it was 2.29 µM (active); in assay [12], 1.66 µM (active).
In the case of `COc1ccc(S(=O)(=O)Nc2ccc3c(c2)C(=O)N([C@H](C)CO)C[C@H](C)[C@H](CN(C)Cc2ccc(C(F)(F)F)cc2)OCCCC[C@H](C)O3)cc1`, the half-maximal activity concentration (AC50) at Paired box protein Pax-8 was 9.51 µM (active); in [13], 31.6 µM (active); in [14], 22.9 µM (active); in assay [15], 50.7 µM (active).
In the case of `O=C(O)c1ccccc1OP(=O)(O)O` [FOSFOSAL], the IC50 in assay [16], in assay [17], in assay [18], in [19], in assay [20] and in [21] was > 20 µM (inactive) in each case. Besides, the IC50 in assay [22] was > 20 µM (inactive).
